From patent US20210139857A1, “Intestinal organoid co-culture systems and methods for treating or preventing a disease or disorder associated with immune response-mediated tissue injury” (NEW YORK UNIVERSITY, priority 2019, published 2021)

Experiments:
[1] = tested on: ATG16L1^T300A homozygous human organoids; assay: human organoid viability assay, TNFα-induced death; assay type: cell-based; settings: 50 ng/ml TNFα, 48 hours; 100 nM Ruxolitinib, 1 μM GSK547, 20 μM Necrostatin-1s, 2 μM NSA; P<0.0001
Experimental: N=14 (Nonrisk) and 6 (T300A/T300A). Statistical significance was validated with Fisher's exact test. FIG. 13B depicts a combined organoid viability in (A). N=14 (Non-risk) and 6 (T300A/T300A). FIG. 13C and FIG. 13D depict representative images (FIG. 13C) and viability (FIG. 13D) of human small intestinal organoids stimulated with or without 50 ng/ml TNFα, 100 nM Ruxolitinib, 1 μM GSK547, 20 μM Necrostatin-1s (Nec-1s), and 2 μM necrosulfonamide (NSA) for 48 hours. Scale bars represent 400 μm. Data points in FIG. 13B represent an average viability of individual organoids in FIG. 12, and data points in FIG. […] are mean of technical replicates. At least 2 independent experiments were performed. ***p<0.001, ****p<0.0001.
Mouse small intestinal and colonic crypts were isolated and cultured. Crypts of proximal small intestine were counted and embedded in Matrigel at 10,000 crypts/ml and cultured in DMEM/F-12 in the presence of 100 IU penicillin and 100 μg/ml streptomycin (Corning), 125 μg/ml gentamicin (Gibco), 2 mM l-glutamine (Corning), 20 ng/ml mEGF (PeproTech), 100 ng/ml mNoggin (R&D Systems), and 500 ng/ml mR-Spondin 1 (R&D Systems), hereafter referred as ENR medium. Crypts of colon were counted and embedded in Matrigel and cultured in the ENR medium plus 50 ng/ml Wnt-3a, 1×B-27, and N-2 supplement (Thermo Fisher Scientific). Surface area of organoids was quantified with Image J. For organoid viability assays, crypts were embedded in 10 μl of Matrigel at 5,000 crypts/ml and cultured in 96-well culture plate in triplicate with or without 20 ng/ml mTNFα (PeproTech) and 100 nM Ruxolitinib (Selleckchem). Percent viable organoids was determined by daily quantification of the number of intact organoids. Opaque organoids with condensed structures or those that have lost adherence were excluded. Dead organoids were marked by staining with 100 μg/ml propidium iodide (SIGMA-ALDRICH). Human intestinal organoids were cultured (Neil et al., 2019, Nat Microbiol 4, 1737-1749). […]

Atg16L1^ΔIEC mice = assay: preclinical GVHD model: allo-HCT after chemotherapy conditioning, GSK547 or control chow; assay type: in vivo, mouse; settings: GSK547 chow started 10 days before allo-HCT, P<0.05
From the text: FIG. 1F depicts the survival of chemotherapy-pretreated Atg16L1^f/f (f/f) and Atg16L1^ΔIEC (ΔIEC) mice which received GSK547 or control chow and were transplanted with 5×10^6 T cell-depleted BM cells with 4×10^6 splenic T cells from donor LP/J mice. n=8 (f/f, control), 8 (ΔIEC, control), 8 (f/f, GSK547), and 8 (ΔIEC, GSK547). GSK547 was started 10 days before allo-HCT, and continued until the end of the study. FIG. 1G depicts the clinical disease scores evaluated every 7 days after allo-HCT. Data points in FIG. 1B, FIG. 1D, and FIG. 1F represent individual mice, and data points in FIG. 1C, FIG. 1E, and FIG. 1G are mean of clinical scores of viable mice. Bars represent means±SEM, and survival data in FIG. 1B, FIG. 1D, and FIG. 1F are combined results of 2 experiments performed independently. FIG. 1B, FIG. 1D, and FIG. 1F were analyzed with the Mantel-Cox log rank test.
In brief, female B6 background mice were intraperitoneally injected with busulfan (20 mg/kg/day) for 5 days, followed by cyclophosphamide (100 mg/kg/day) for 3 days. Days −2 and −1 were rest days. […] Recipient mice were monitored daily for survival and weekly quantified for clinical GVHD for 5 clinical parameters (weight loss, hunched posture, activity, fur ruffling, and skin lesions) on a scale from 0 to 2. […]

SMILES	viability of human organoids, TNFα-induced death [1]	survival after allo-HCT (Atg16L1^ΔIEC mice; BM + T cells from LP/J donors)	clinical GVHD score after allo-HCT (Atg16L1^ΔIEC mice; scored every 7 days)
CN1C(=O)NC(Cc2c[nH]c3c(Cl)cccc23)C1=O (centres unmarked) [Necrostatin-1s]	significantly protected	–	–
COc1nccnc1NS(=O)(=O)c1ccc(NC(=O)/C=C/c2ccc([N+](=O)[O-])s2)cc1 [Necrosulfonamide]	significantly protected	–	–
N#Cc1cc(N2CCC(C(=O)N3N=CC[C@H]3c3cc(F)cc(F)c3)CC2)ncn1 [GSK547]	significantly protected	significantly better survival	significantly better
